For experiment [1], the system named is colon cancer mouse xenograft. Briefly: Colon cancer mouse xenograft model. In kind it is in vivo, mice. The method, then:
The tumor volume was monitored over 30 days, and the tumor volume was measured after 30 days. The tumor was extracted from the mice, and the dimensions of the tumor were measured to provide a tumor volume in mm^3.
Key: PO=oral; IP=intraperitoneal; ANOVA significance: *: P<0.05; **: P<0.0003; ***: P<0.0001.

A further experiment has as its system HCC1937 tumor organoids. The experiment is described as follows: Tumor organoid cytotoxicity, HCC1937. It is filed as cell-based. As to conditions: Homo sapiens; HCC1937 (BRCA1 mutant HR-deficient); read-out: IC50, tumor organoid viability, single agent. The method, then:
Tumor organoid culture—Cell lines were cultured as tumor organoids by seeding 2,000 to 5,000 cells/well into uncoated 96 well U-bottom Ultra Low Attachment Microplates (Corning) using their corresponding medium. Cell aggregation was then promoted by centrifugation of the plates for 15 min at 1,000 rpm followed by the addition of Matrigel (Corning) to a 2-5% final concentration. Tumor organoids were maintained under standard cell culture conditions for 72 h prior to drug treatment.
Organoids were then transferred to a white solid bottom 96 well plate and incubated with an equal volume of CellTiter Glo 3D reagent (Promega) for 45 min on a shaker at 400 rpm. Luminescence was recorded using the EnVision plate reader (PerkinElmer) and values normalized to the controls using GraphPad Prism.

For the next experiment, the system named is MCF-7 cells. The experiment is described as follows: Tumor organoid viability, MCF-7. It is filed as cell-based. As to conditions: Homo sapiens, MCF7; MCF-7 (luminal breast cancer); read-out: IC50, tumor organoid viability, single agent. The source says: The tumor organoid viability assay is as described in Example 9.
For experiment [2], the system named is SW620 M-phenotype mouse xenografts. The experiment is described as follows: Irinotecan drug resistant SW620 M-phenotype mouse xenografts. In kind it is in vivo.
A further experiment concerns Colo679 cells. The experiment is described as follows: DDR biomarkers (pATM, RAD51, 53BP1, γ-H2AX) in Colo679 cells. In kind it is cell-based. To be noted: 4 μM. From the text:
(§1) Etoposide was used as a control to show upregulation of DDR pathway biomarkers.

The test system of another experiment is MiaPaca2 cells. Briefly: MiaPaca2 cell viability, combination with chemotherapy. In kind it is cell-based. As to conditions: MiaPaca2 cells. From the text:
The cell viability assays and Bliss synergy analyses are as described above in Examples 1-9 and 11-12.

The subject of experiment [3] is SW620 cells and HCT116 cells. The experiment is described as follows: CHD1L-mediated TCF-transcription and CSC stemness (clonogenic colonies).
The test system of the next experiment is Colo678 cells. The experiment is described as follows: Colo678 cell viability, combination with chemotherapy. As to conditions: Colo678 cells, 72 h; combined with SN-38. It is filed as cell-based.
Experiment [4] relates to SUM149 and MDA-MB-231 cells. The experiment is described as follows: DDR biomarkers in breast cancer cells. To be noted: 4 μM. In kind it is cell-based.
Source text: as §1

These results are taken from patent publication US20260240844A1, “INHIBITORS OF CHD1L AND USES THEREOF” (The Regents of the University of Colorado, a body corporate, priority 2023, published 2026).

In general, IC50 refers to the midpoint of a concentration-inhibition curve. As for `Cc1cc(Nc2ccc(NC(=O)Cc3cc(Br)cs3)cc2)nc(N2CCCC2)n1` [Compound 6.11, 2-(4-bromothiophen-2-yl)-N-(4-((6-methyl-2-(pyrrolidin-1-yl)pyrimidin-4-yl)amino)phenyl)acetamide], in experiment [1] (Compound 6.11 5 mg/kg daily IP + irinotecan 50 mg/kg 1×/week IP, after 20 days), the “decrease in tumor volume” value is “approximately 50%”. In addition, the “metastatic tumor burden (bioluminescent imaging, % change total flux)” value in experiment [1] (Compound 6.11 100 mg/kg 5×/week oral + irinotecan 15 mg/kg 1×/week IP) is reported as around 0. The survival result in experiment [1] (combination of Compound 6.11 and irinotecan) was “improved survival rates”. In addition, the IC50 in the experiment with HCC1937 tumor organoids was around 2800 nM; in the experiment on MCF-7 cells it was around 1800 nM. Further, the “inhibition of tumor growth vs irinotecan alone” value in [2] (Compound 6.11 5 mg/kg IP 1×/day + irinotecan 50 mg/kg 1×/week) is reported as “significantly more effective at inhibiting tumor growth”. The “increase in mouse survival” value in experiment [2] (Compound 6.11 5 mg/kg IP 1×/day + irinotecan 50 mg/kg 1×/week vs irinotecan alone) is “about a month”. Also, the “increase in mouse survival compared to irinotecan alone” value in experiment [2] (low doses of Compound 6.11 combined with irinotecan, drug resistant CRC nude mouse xenografts) stood at 30 days. Further, the “amount of 53BP1” value in the experiment on Colo679 cells is listed as “decrease the amount of 53BP1”. Moreover, the “amount of RAD51” value in the experiment with Colo679 cells is on record as “increase the amount of RAD51”. In addition, the “amount of pATM” value with Colo679 cells is given as “minimal effect”. Besides, the γ-H2AX concentrations result in the experiment on Colo679 cells was “decreased”. Besides, the “calculated mean synergy score” value in the experiment with MiaPaca2 cells (combined with 5-FU) is listed as “about 42”; in the experiment with MiaPaca2 cells (combined with SN-38) it was “about 29”; in the experiment on Colo678 cells, “about 41”. In addition, in experiment [3], the “CHD1L-mediated TCF-transcription and CSC stemness” value is “dose dependent inhibition”. In experiment [4], the “amounts of γ-H2AX and 53BP1” value was “overall decreases in the amounts of γ-H2AX and 53BP1”.
